This is an account of results in patent US11739098B2 (BRISTOL-MYERS SQUIBB COMPANY, priority 2017, dated 2023).

Format in all cases: cell-based
The target in experiment [1] is T1, human TLR7 (Homo sapiens, UniProt Q9NYK1).
T1 construct: host or cells: HEK-Blue cells (HEK293-derived reporter line)
T1 sequence (Q9NYK1 27-1049): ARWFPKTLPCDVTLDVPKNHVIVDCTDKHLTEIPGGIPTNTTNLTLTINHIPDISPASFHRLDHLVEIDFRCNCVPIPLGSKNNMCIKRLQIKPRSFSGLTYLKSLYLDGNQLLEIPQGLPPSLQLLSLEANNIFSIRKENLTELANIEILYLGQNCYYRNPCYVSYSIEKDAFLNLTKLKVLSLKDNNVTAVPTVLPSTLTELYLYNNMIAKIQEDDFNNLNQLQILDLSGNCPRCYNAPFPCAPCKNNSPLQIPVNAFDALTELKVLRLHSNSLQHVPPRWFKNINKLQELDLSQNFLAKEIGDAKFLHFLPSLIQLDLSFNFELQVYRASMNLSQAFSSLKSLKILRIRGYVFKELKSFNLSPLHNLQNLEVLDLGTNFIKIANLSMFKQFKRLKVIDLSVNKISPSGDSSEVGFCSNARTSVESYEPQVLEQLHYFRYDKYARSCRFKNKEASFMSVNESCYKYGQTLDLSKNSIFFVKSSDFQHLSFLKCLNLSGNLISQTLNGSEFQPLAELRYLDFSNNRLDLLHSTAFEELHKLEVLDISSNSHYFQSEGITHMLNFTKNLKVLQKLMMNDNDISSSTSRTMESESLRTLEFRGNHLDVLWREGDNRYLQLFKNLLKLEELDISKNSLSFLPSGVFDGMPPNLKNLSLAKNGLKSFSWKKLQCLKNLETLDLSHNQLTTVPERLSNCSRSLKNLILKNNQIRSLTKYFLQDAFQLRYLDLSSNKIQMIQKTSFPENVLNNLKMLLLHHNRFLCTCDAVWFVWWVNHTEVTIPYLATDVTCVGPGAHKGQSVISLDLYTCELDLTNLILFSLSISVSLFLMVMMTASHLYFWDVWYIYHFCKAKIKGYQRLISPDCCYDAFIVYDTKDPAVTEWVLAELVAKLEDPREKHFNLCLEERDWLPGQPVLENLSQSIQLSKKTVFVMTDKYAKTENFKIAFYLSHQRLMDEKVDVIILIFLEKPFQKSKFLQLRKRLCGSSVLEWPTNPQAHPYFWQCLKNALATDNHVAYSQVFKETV
Nature of the experiment: TLR7 inhibition reporter assay (HEK-Blue cells, SEAP reporter, gardiquimod stimulation). To be noted: HEK-Blue cells overexpressing human TLR7, SEAP reporter, gardiquimod 7.5 μM. The procedure, abridged: (§1)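 After 22 h at 37 °C, SEAP secretion was measured from human TLR7-, TLR8- or TLR9-expressing HEK-Blue reporter cells given compound (0.05 nM–50 μM) 30 min before agonist: 7.5 μM gardiquimod, 15.9 μM R848 or 5 nM ODN2006 respectively. Percent inhibition referenced to agonist-plus-DMSO and known-inhibitor wells.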

Experiment [2] addresses T2, human TLR8 (Homo sapiens, UniProt Q9NR97).
T2 construct: host or cells: HEK-Blue cells (HEK293-derived reporter line)
T2 sequence (Q9NR97 27-1041): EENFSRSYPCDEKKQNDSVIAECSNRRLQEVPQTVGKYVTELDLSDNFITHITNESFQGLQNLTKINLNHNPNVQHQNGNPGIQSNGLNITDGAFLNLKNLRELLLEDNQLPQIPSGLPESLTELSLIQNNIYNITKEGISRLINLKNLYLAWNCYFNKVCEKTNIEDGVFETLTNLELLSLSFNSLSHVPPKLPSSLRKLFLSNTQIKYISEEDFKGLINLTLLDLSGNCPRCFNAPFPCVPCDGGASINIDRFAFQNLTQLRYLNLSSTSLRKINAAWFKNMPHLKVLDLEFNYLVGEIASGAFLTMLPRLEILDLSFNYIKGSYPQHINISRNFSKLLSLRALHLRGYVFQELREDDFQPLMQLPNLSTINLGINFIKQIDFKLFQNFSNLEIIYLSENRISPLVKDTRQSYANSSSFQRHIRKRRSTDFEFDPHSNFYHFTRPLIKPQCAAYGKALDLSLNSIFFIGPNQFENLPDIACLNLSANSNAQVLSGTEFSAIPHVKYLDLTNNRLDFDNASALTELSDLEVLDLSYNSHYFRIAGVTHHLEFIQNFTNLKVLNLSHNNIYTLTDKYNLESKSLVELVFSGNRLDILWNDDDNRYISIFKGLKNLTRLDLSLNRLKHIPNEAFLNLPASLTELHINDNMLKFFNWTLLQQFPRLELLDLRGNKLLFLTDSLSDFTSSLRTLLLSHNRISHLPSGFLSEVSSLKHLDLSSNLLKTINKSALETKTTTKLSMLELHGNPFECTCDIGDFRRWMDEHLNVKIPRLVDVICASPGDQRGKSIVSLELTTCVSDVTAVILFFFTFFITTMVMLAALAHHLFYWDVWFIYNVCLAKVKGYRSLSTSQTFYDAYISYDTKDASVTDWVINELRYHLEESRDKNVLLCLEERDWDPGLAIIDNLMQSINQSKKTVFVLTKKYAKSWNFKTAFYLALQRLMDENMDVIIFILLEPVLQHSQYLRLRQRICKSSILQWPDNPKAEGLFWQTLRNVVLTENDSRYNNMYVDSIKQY
The experiment is described as follows: TLR8 inhibition reporter assay (HEK-Blue cells, SEAP reporter, R848 stimulation). To be noted: HEK-Blue cells overexpressing human TLR8, SEAP reporter, R848 15.9 μM. The procedure, abridged:
as §1
In general terms: In a reporter assay the amount or activity of a reporter protein is the signal.

Experiment [3] deals with T3, human TLR9 (Homo sapiens, UniProt Q9NR96).
T3 construct: host or cells: HEK-Blue cells (HEK293-derived reporter line)
T3 sequence (Q9NR96 26-1032): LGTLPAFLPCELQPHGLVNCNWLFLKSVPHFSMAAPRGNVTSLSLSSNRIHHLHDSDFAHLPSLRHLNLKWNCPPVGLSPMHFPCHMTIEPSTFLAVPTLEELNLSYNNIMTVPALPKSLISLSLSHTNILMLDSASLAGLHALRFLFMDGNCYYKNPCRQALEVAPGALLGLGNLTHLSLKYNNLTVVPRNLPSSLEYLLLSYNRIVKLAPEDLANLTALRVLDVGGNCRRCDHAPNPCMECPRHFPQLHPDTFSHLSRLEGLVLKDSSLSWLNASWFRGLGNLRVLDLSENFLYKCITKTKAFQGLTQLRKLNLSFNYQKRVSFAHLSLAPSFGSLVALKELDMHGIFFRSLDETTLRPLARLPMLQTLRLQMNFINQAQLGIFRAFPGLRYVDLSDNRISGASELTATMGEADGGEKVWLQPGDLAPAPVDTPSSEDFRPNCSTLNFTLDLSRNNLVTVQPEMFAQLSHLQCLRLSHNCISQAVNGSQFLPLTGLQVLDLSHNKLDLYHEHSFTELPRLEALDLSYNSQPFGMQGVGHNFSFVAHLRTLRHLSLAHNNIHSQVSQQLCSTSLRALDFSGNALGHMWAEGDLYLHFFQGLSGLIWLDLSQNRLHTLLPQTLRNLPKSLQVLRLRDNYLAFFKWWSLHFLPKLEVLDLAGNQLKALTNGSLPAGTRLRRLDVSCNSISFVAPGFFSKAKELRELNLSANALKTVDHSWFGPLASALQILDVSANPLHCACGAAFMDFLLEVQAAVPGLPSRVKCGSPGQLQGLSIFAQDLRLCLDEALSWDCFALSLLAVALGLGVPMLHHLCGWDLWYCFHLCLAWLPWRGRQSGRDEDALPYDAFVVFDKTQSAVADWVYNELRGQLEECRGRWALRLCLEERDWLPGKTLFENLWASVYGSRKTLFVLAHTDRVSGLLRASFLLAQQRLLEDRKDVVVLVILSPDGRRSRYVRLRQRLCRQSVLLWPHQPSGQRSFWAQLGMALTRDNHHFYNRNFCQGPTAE
Nature of the experiment: TLR9 inhibition reporter assay (HEK-Blue cells, SEAP reporter, ODN2006 stimulation). The note with it: HEK-Blue cells overexpressing human TLR9, SEAP reporter, ODN2006 5 nM. A digest of the protocol:
as §1

In general, IC50 refers to the concentration needed to halve the response being measured. A low value points to inhibition by little substance. With `CCc1c(-c2ccnc3cnn(C)c23)[nH]c2ccc(C3CCNCC3)cc12` [Example 41, 7-(3-ethyl-5-(piperidin-4-yl)-1H-indol-2-yl)-1-methyl-1H-pyrazolo[4,3-b]pyridine], the results for the IC50 in experiment [1], in experiment [2] and in experiment [3] were 0.1 to 1 µM, 0.1 to 1 µM and 1 to 50 µM, respectively.

Regarding `CC(C)c1c(-c2ccnc3cnn(C)c23)[nH]c2ccc(C3CCNCC3)cc12` [Example 42, 7-(3-isopropyl-5-(piperidin-4-yl)-1H-indol-2-yl)-1-methyl-1H-pyrazolo[4,3-b]pyridine], the IC50 lay in the range of 1 to 50 µM in experiment [1], 0.1 to 1 µM in experiment [2] and 1 to 50 µM in experiment [3].

As for `CC(C)c1c(-c2ccnc3cnn(C)c23)[nH]c2ccc(C3CCNCC3)cc12` [Example 43, 7-(3-isopropyl-5-(piperidin-4-yl)-1H-indol-2-yl)-1-methyl-1H-pyrazolo[4,3-b]pyridine], the IC50 in experiment [1] was 0.1 to 1 µM; in experiment [2], below 0.1 µM; in experiment [3] it was 1 to 50 µM.

In the case of `CC(C)c1c(-c2ccnc3c2ncn3C)[nH]c2ccc(C3CCNCC3)cc12` [Example 44, 7-(3-isopropyl-5-(piperidin-4-yl)-1H-indol-2-yl)-3-methyl-3H-imidazo[4,5-b]pyridine], the IC50 in experiment [1], in experiment [2] and in experiment [3] was 1 to 50 µM throughout.

Regarding `CC(C)c1c(-c2ccnc3c2ncn3C)[nH]c2ccc(C3CCNCC3)cc12` [Example 45, 7-(3-isopropyl-5-(piperidin-4-yl)-1H-indol-2-yl)-3-methyl-3H-imidazo[4,5-b]pyridine], the IC50 in experiment [1] lay in the range of 0.1 to 1 µM; in experiment [2], 0.1 to 1 µM; in experiment [3] it was 1 to 50 µM.

Consider `Cc1cnc2[nH]ncc2c1-c1[nH]c2ccc(C3CCNCC3)cc2c1C(C)C` [Example 46, 4-(3-isopropyl-5-(piperidin-4-yl)-1H-indol-2-yl)-5-methyl-1H-pyrazolo[3,4-b]pyridine], for which the IC50 is below 0.1 µM in experiment [1], below 0.1 µM in experiment [2] and 1 to 50 µM in experiment [3].

For `COc1nc(-c2[nH]c3ccc(C4CCNCC4)cc3c2C(C)C)cn2ncnc12` [Example 47, 6-(3-isopropyl-5-(piperidin-4-yl)-1H-indol-2-yl)-8-methoxy-[1,2,4]triazolo[1,5-a]pyrazine], the figures for the IC50 in experiment [1], in experiment [2] and in experiment [3] were 0.1 to 1 µM, above 3.13 µM and 1 to 50 µM, respectively.

With `CC(C)c1c(-c2cn(C)c3ncccc23)[nH]c2ccc(C3CCNCC3)cc12` [Example 48, 3-(3-isopropyl-5-(piperidin-4-yl)-1H-indol-2-yl)-1-methyl-1H-pyrrolo[2,3-b]pyridine], the IC50 in experiment [1] was below 0.1 µM; in experiment [2], below 0.1 µM; in experiment [3] it was 1 to 50 µM.

In the case of `Cc1cc(-c2[nH]c3ccc(C4CCNCC4)cc3c2C(C)C)c2[nH]ncc2n1` [Example 49, 7-(3-isopropyl-5-(piperidin-4-yl)-1H-indol-2-yl)-5-methyl-1H-pyrazolo[4,3-b]pyridine], the IC50 in experiment [1] is below 0.1 µM; in experiment [2], below 0.1 µM; in experiment [3] it was 1 to 50 µM.

Turning to `CC(C)c1c(-c2ccc3[nH]cnc3c2)[nH]c2ccc(C3CCNCC3)cc12` [Example 50, 5-(3-isopropyl-5-(piperidin-4-yl)-1H-indol-2-yl)-1H-benzo[d]imidazole], the IC50 in experiment [1] was 0.1 to 1 µM; in experiment [2] it was 1 to 50 µM; in experiment [3], 1 to 50 µM.

As for `CC(C)c1c(-c2ccc3[nH]nnc3c2)[nH]c2ccc(C3CCNCC3)cc12` [Example 51, 5-(3-isopropyl-5-(piperidin-4-yl)-1H-indol-2-yl)-1H-benzo[d][1,2,3]triazole], the IC50 is below 0.1 µM in experiment [1], below 0.1 µM in experiment [2] and 0.1 to 1 µM in experiment [3].

Take `Cc1c(-c2ccc3[nH]nnc3c2)[nH]c2ccc(C3CCNCC3)cc12` [Example 52, 5-(3-methyl-5-(piperidin-4-yl)-1H-indol-2-yl)-1H-benzo[d][1,2,3]triazole]: the figures for the IC50 in experiment [1], in experiment [2] and in experiment [3] were 1 to 50 µM, 1 to 50 µM and 0.1 to 1 µM, respectively.

Take `CCc1c(-c2cnc3[nH]ncc3c2)[nH]c2ccc(C3CCNCC3)cc12` [Example 53, 5-(3-ethyl-5-(piperidin-4-yl)-1H-indol-2-yl)-1H-pyrazolo[3,4-b]pyridine]: the IC50 is 0.1 to 1 µM in experiment [1], below 0.1 µM in experiment [2] and 1 to 50 µM in experiment [3].

For the molecule `CC(C)c1c(-c2ccnc3cn[nH]c23)[nH]c2ccc(C3CCNCC3)cc12` [Example 54, 7-(3-isopropyl-5-(piperidin-4-yl)-1H-indol-2-yl)-1H-pyrazolo[4,3-b]pyridine], the results for the IC50 in experiment [1], in experiment [2] and in experiment [3] were below 0.1 µM, below 0.1 µM and 0.1 to 1 µM, respectively.

`Cc1c(-c2ccnc3cn[nH]c23)[nH]c2ccc(C3CCNCC3)cc12` [Example 55, 7-(3-methyl-5-(piperidin-4-yl)-1H-indol-2-yl)-1H-pyrazolo [4,3-b]pyridine]: the IC50 was in the range of 0.1 to 1 µM in experiment [1], 1 to 50 µM in experiment [2] and 1 to 50 µM in experiment [3].
